In ChEMBL document CHEMBL1201862, “PubChem BioAssay data set” (2004):
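96-well plates; 48 h exposure; 5 concentrations. Endpoints by linear interpolation between flanking doses. Not reached: highest tested concentration assigned. GI50 marks 50% less growth.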 Active and inactive are the calls of the source. Rule as the data show it: active = GI50 up to about 1.1 µM and inactive = higher.

What was measured:
Assay in all cases: DTP human tumour cell line panel, 48 h
[1] = tested on: ACHN
[2] = tested on: CCRF-CEM
[3] = tested on: DU-145
[4] = tested on: HCT-116
[5] = tested on: HOP-62
[6] = tested on: HOP-92
[7] = tested on: K562
[8] = tested on: MDA-N
[9] = tested on: Malme-3M
[10] = tested on: NCI-H23
[11] = tested on: OVCAR-5
[12] = tested on: PC-3
[13] = tested on: SF-268
[14] = tested on: SNB-19
[15] = tested on: SNB-75
[16] = tested on: SR
[17] = tested on: UACC-62
[18] = tested on: A498

In the case of `Cc1ccc(Nc2nc3ccccc3c(=O)n2N)cc1`, the GI50 [1] was > 100 µM (inactive), the GI50 [2] was > 100 µM (inactive) and the GI50 [3] was > 100 µM (inactive). The GI50 [4] was > 100 µM (inactive), the GI50 [5] was > 100 µM (inactive) and the GI50 [6] was > 100 µM (inactive). For the same compound, the GI50 [7] was > 100 µM (inactive), the GI50 [8] was > 100 µM (inactive) and the GI50 [9] was > 100 µM (inactive). The GI50 [10] was > 100 µM (inactive), the GI50 [11] was > 100 µM (inactive) and the GI50 [12] was > 100 µM (inactive). For the same compound, the GI50 [13] was > 100 µM (inactive), the GI50 [14] was > 100 µM (inactive) and the GI50 [15] was 75 µM (inactive). The GI50 [16] was > 100 µM (inactive) and the GI50 [17] was > 100 µM (inactive).
With `COc1cc2cccc(N)c2cc1OC` the GI50 [18] was > 100 µM (inactive), the GI50 [1] was > 100 µM (inactive) and the GI50 [2] was > 80.5 µM (inactive). The GI50 [3] was > 100 µM (inactive), the GI50 [4] was > 100 µM (inactive) and the GI50 [5] was > 100 µM (inactive). The GI50 [7] was > 100 µM (inactive), the GI50 [8] was > 100 µM (inactive) and the GI50 [9] was > 100 µM (inactive). The GI50 [10] was > 100 µM (inactive), the GI50 [11] was > 100 µM (inactive) and the GI50 [12] was > 100 µM (inactive). The GI50 [13] was > 100 µM (inactive), the GI50 [14] was > 100 µM (inactive) and the GI50 [15] was > 100 µM (inactive). For the same compound, the GI50 [16] was > 45.3 µM (inactive) and the GI50 [17] was > 100 µM (inactive).
For `CSC1=C(C#N)C(=S)N=C(N)C1C(=O)Nc1ccc(C)cc1` (stereo unspecified), the GI50 [18] was 68.9 µM (inactive), the GI50 [2] was > 100 µM (inactive) and the GI50 [3] was > 100 µM (inactive). The GI50 [4] was 81.5 µM (inactive), the GI50 [7] was > 100 µM (inactive) and the GI50 [8] was > 100 µM (inactive). For the same compound, the GI50 [9] was > 100 µM (inactive), the GI50 [10] was > 100 µM (inactive) and the GI50 [11] was > 100 µM (inactive). The GI50 [12] was > 100 µM (inactive), the GI50 [13] was > 100 µM (inactive) and the GI50 [14] was > 100 µM (inactive). The GI50 [15] was > 100 µM (inactive), the GI50 [16] was > 100 µM (inactive) and the GI50 [17] was > 100 µM (inactive).
With `CCOC(=O)CC(N1CC1)N1CC1` the GI50 [18] was > 10 µM (inactive), the GI50 [1] was > 10 µM (inactive) and the GI50 [2] was > 10 µM (inactive). For the same compound, the GI50 [3] was > 10 µM (inactive), the GI50 [4] was > 10 µM (inactive) and the GI50 [5] was > 10 µM (inactive). For the same compound, the GI50 [7] was > 10 µM (inactive), the GI50 [8] was > 10 µM (inactive) and the GI50 [9] was > 10 µM (inactive). For the same compound, the GI50 [10] was > 10 µM (inactive), the GI50 [11] was > 10 µM (inactive) and the GI50 [12] was > 10 µM (inactive). For the same compound, the GI50 [13] was > 10 µM (inactive), the GI50 [14] was > 10 µM (inactive) and the GI50 [15] was > 10 µM (inactive). For the same compound, the GI50 [16] was > 10 µM (inactive) and the GI50 [17] was > 10 µM (inactive).
In the case of `CC(C)c1ccc(/C=C2\CSCC3=C2N=C2SCC(=O)N2C3c2ccc(C(C)C)cc2)cc1` (stereo unspecified), the GI50 [1] was > 100 µM (inactive), the GI50 [2] was 68.1 µM (inactive) and the GI50 [3] was > 100 µM (inactive). The GI50 [4] was > 100 µM (inactive), the GI50 [5] was > 100 µM (inactive) and the GI50 [6] was > 100 µM (inactive). The GI50 [7] was > 100 µM (inactive), the GI50 [8] was > 100 µM (inactive) and the GI50 [9] was 96.4 µM (inactive). For the same compound, the GI50 [10] was > 100 µM (inactive), the GI50 [11] was > 100 µM (inactive) and the GI50 [12] was > 100 µM (inactive). The GI50 [13] was > 100 µM (inactive), the GI50 [15] was > 100 µM (inactive) and the GI50 [16] was 77.4 µM (inactive). The GI50 [17] was > 100 µM (inactive).
With `O=C(CCc1ccccc1)n1cccc1CO` the GI50 [18] was > 100 µM (inactive), the GI50 [1] was > 100 µM (inactive) and the GI50 [2] was > 100 µM (inactive). For the same compound, the GI50 [3] was > 100 µM (inactive), the GI50 [4] was > 100 µM (inactive) and the GI50 [5] was > 100 µM (inactive). The GI50 [7] was > 100 µM (inactive), the GI50 [8] was > 100 µM (inactive) and the GI50 [9] was > 100 µM (inactive). The GI50 [10] was > 100 µM (inactive), the GI50 [11] was > 100 µM (inactive) and the GI50 [12] was > 100 µM (inactive). For the same compound, the GI50 [13] was > 100 µM (inactive), the GI50 [14] was > 100 µM (inactive) and the GI50 [15] was > 100 µM (inactive). For the same compound, the GI50 [16] was > 100 µM (inactive) and the GI50 [17] was > 100 µM (inactive).
`c1ccc([P+](c2ccccc2)(c2ccccc2)c2ccc([P+](c3ccccc3)(c3ccccc3)c3ccccc3)c3ccccc23)cc1` was tested, and the GI50 [18] was > 100 µM (inactive), the GI50 [1] was > 100 µM (inactive) and the GI50 [2] was 64.4 µM (inactive). The GI50 [3] was 67.3 µM (inactive), the GI50 [4] was 40 µM (inactive) and the GI50 [5] was > 100 µM (inactive). For the same compound, the GI50 [7] was 29.6 µM (inactive), the GI50 [8] was 64.4 µM (inactive) and the GI50 [9] was > 100 µM (inactive). For the same compound, the GI50 [10] was 57.4 µM (inactive), the GI50 [11] was > 100 µM (inactive) and the GI50 [12] was 70.6 µM (inactive). The GI50 [13] was > 100 µM (inactive), the GI50 [14] was 65 µM (inactive) and the GI50 [15] was 70.1 µM (inactive). For the same compound, the GI50 [16] was < 0.01 µM (active) and the GI50 [17] was 86.5 µM (inactive).
